Experimental data reported in patent EP0047977A2, “Cephalosporin derivatives, process for their preparation, pharmaceutical compositions containing them and their use” (CIBA-GEIGY AG, priority 1980, dated 1982).
In brackets after ≈: the same amount, converted by molar mass.

How the values were obtained:
Escherichia coli 205 = assay: Antibiotic activity in vitro, agar dilution method in DST agar (MIC); format: cell-based
[1] = tested on: Escherichia coli 205 K 1075; assay: Chemotherapeutic efficacy in vivo against systemic infection in the mouse (ED50); conditions: 205K1075, sc; s.c.; systemic infection with Escherichia coli 205 K 1075 in female SPF, MF2 mice
From the text: (§1) B. Die chemotherapeutische Wirksamkeit in vivo gegen systemische Infektionen in weiblichen SPF, MF2 Mäusen wurde nach der Methode von Zak, 0., et al., 1979, Drugs Exptl. Clin. Res. 5, 45-59, ermittelt. Die gefundenen ED50-Werte in Milligramm Substanz pro Kilogramm Maus (mg/kg) gegen eine Anzahl von Mikroorganismen werden für die subcutan (s.c.) applizierten Testverbindungen in der Tabelle 2 angegeben.

[2] = tested on: Pseudomonas aeruginosa ATCC 12055; assay: as above; conditions: ATCC12055, sc; s.c.; systemic infection with Pseudomonas aeruginosa ATCC 12055 in female SPF, MF2 mice
From the text: as §1

[3] = tested on: Streptococcus pyogenes Aronson; assay: Antibiotic activity in vitro, agar dilution method in DST agar (MIC); format: cell-based
[4] = tested on: Pseudomonas aeruginosa ATCC 12055; assay: as above; format: cell-based; conditions: ATCC12055
[5] = tested on: Clostridium perfringens (anaerob); assay: microbe, parasite or virus in culture; format: cell-based

Row | Compound | MIC (Escherichia coli 205) [µg/mL] | ED50 [1] [mg/kg] | ED50 [2] [mg/kg] | MIC [3] [µg/mL] | MIC [4] [µg/mL] | MIC [5] [µg/mL]
1 | CO/N=C(\C(=O)N[C@@H]1C(=O)N2C(C(=O)[O-])=C(C[n+]3ccc(C(=O)O)cc3)CS[C@H]12)c1nsc(N)n1 [Verbindung 1, 7ß-[2-(5-Amino-1,2,4-thiadiazol-3-yl)-2-Z-methoxyiminoacetamido]-3-(4-carboxypyridiniomethyl)-3-cephem-4-carboxylat] | 0.05 (≈ 0.0962 µM) | 0.9 | 6 | 0.1 (≈ 0.192 µM) | 1 (≈ 1.92 µM) | 
2 | CC(C)(O/N=C(\C(=O)N[C@@H]1C(=O)N2C(C(=O)[O-])=C(C[n+]3cccc(CC(=O)O)c3)CS[C@H]12)c1nsc(N)n1)C(=O)O [Verbindung 2, 7β-[2-(5-Amino-1,2,4-thiadiazol-3-yl)-2-Z-2-carboxyprop-2-yloxy-iminoacetamido]-3-(3-carboxymethylpyridiniomethyl)-3-cephem-4-carboxylat] | 1 (≈ 1.65 µM) | 2 | ≥ 30 | 1 (≈ 1.65 µM) | 0.5 (≈ 0.826 µM) | 0.1 (≈ 0.165 µM)
3 | Cn1ccc[n+]1CC1=C(C(=O)[O-])N2C(=O)[C@@H](NC(=O)/C(=N\OC(C)(C)C(=O)O)c3nsc(N)n3)[C@H]2SC1 [Verbindung 3, 7ß-[2-(5-Amino-1,2,4-thiadiazol-3-yl)-2-Z-2-carboxyprop-2-yloxy-iminoacetamido]-3-(2-methyl-1-pyrazoliomethyl)-3-cephem-4-carboxylat] | 0.5 (≈ 0.908 µM) | 5 | 10 | 0.5 (≈ 0.908 µM) | 2 (≈ 3.63 µM) | 0.05 (≈ 0.0908 µM)
4 | CO/N=C(\C(=O)N[C@@H]1C(=O)N2C(C(=O)[O-])=C(C[n+]3cccn3C)CS[C@H]12)c1nsc(N)n1 [Verbindung 4, 7β-[2-(5-Amino-1,2,4-thiadiazol-3-yl)-2-Z-methoxyiminoacetamido]-3-(2-methyl-1-pyrazoliomethyl)-3-cephem-4-carboxylat] | 0.1 (≈ 0.209 µM) | 2.4 | 30 | 0.1 (≈ 0.209 µM) | 0.5 (≈ 1.04 µM) | 
5 | CO/N=C(\C(=O)N[C@@H]1C(=O)N2C(C(=O)[O-])=C(C[n+]3cccc(Br)c3)CS[C@H]12)c1nsc(N)n1 [Verbindung 5, 7β-[2-(5-Amino-1,2,4-thiadiazol-3-yl)-2-Z-methoxyiminoacetamido]-3--(3-brompyridiniomethyl)-3-cephem-4-carboxylat] | 0.1 (≈ 0.18 µM) | 0.9 | 10 to 30 | 0.05 (≈ 0.0902 µM) | 0.5 (≈ 0.902 µM) | 0.01 (≈ 0.018 µM)
6 | CO/N=C(\C(=O)N[C@@H]1C(=O)N2C(C(=O)[O-])=C(C[n+]3ccc(CO)cc3)CS[C@H]12)c1nsc(N)n1 [Verbindung 6, 7ß-[2-(5-Amino-1,2,4-thiadiazol-3-yl)-2-Z-methoxyiminoacetamido]-3-(4-hydroxymethylpyridiniomethyl)-3-cephem-4-carboxylat] | 0.05 (≈ 0.0989 µM) |  | 3 to 10 |  | 0.1 (≈ 0.198 µM) | 0.01 (≈ 0.0198 µM)
